Experimental data as given in patent US20130165396A1, “Apple Skin Extracts for Treating Cardiovascular Disease” (NATIONAL RESEARCH COUNCIL OF CANADA, priority 2010, published 2013).
Marks after values point to notes of the source that are not given here.

Legend:
Type in all cases: biochemical
[1] = system: LDL isolated from human plasma; assay: In vitro LDL oxidation inhibition, statements covering both induction systems or both product types; details: for Pro-oxidant effect (statement): 5-50 mg L^−1
Description: (§1) Two oxidation induction methods were used: copper sulfate and 2,2′-azobis(2-methylpropionamidine)dihydrochloride (AAPH). For both induction systems, 100 μg/mL of final LDL protein concentration was used. LDL was oxidized at the presence of 10 μM final concentration of Cu^2+and 5 mM final concentration of AAPH separately at 37° C. for 4 h in the dark. […] Oxidation was terminated by adding a 1:1 mixture of 1 mM solution of ethylenediaminetetraacetic acid (EDTA) and 1 mM solution of butylated hydroxytoluene (BHT).
(§2) Two main constituents of TAE and oleanolic acid, which is an isomer of ursolic acid, were also used to investigate the concentration-responsiveness. The same concentrations of Cu^2+ and AAPH were used and the oxidation was terminated by a 1:1 mixture of EDTA and BHT as explained earlier under this section.
TBARS were measured according to the method of Xu et al., J. Food Sci., 2007, 72: S522-S527 with slight modifications. […]. The mixture was incubated at 95° C. for 30 min to develop a pink chromogen. After cooling to room temperature tubes were centrifuged at 1500 g for 15 min and the fluorescence was measured using the FLUOstar OPTIMA plate reader (BMG Labtech Inc. Canada). Excitation and emission wavelengths used were 532 and 590 nm, respectively. TBARS activity was expressed as the percent inhibition (Equation 1) of LDL oxidation with comparison to the positive control, where F is fluorescence:
The formation of hydroperoxides was measured by the lipid compatible formulation of the Peroxoquant™ quantitative peroxide assay kit. LDL oxidation was induced by Cu^2+ or AAPH and incubated for 4 hrs at 37° C. in the dark. Hydroperoxides were measured following the manufacturer's instructions. Absorbance was measured at 595 nm using FLUOstar OPTIMA plate reader (BMG Labtech, Durham, N.C., USA). Activity of hydroperoxides was expressed as the percent inhibition of LDL with comparison to the positive control (Equation 1).

[2] = system: LDL isolated from human plasma; assay: TBARS assay, Cu2+-induced LDL oxidation
Description: (§3) To remove the inherent antioxidants, purchased LDL was dialyzed using Fisherbrand cellulose dialysis tubing (type T3 membrane, Thermo Fisher Scientific Inc., Ottawa, ON, Canada) against PBS containing 0.138 M NaCl and 0.0027 M KCl (pH 7.4, at 25° C.) at 4° C. for 24 hours. The buffer was changed every six hours. The dialyzed LDL was immediately used or stored at −80° C. in the dark under nitrogen and used within two to three weeks. Protein content of the dialyzed LDL was measured by the Lowry's method (Lowry et al., J. Biol. Chem., 1951, 193: […]) using bovine serum albumin as the standard.
as §1, §2
(§4) TBARS were measured according to the method of Xu et al., J. Food Sci., 2007, 72: S522-S527 with slight modifications. […] The mixture was incubated at 95° C. for 30 min to develop a pink chromogen. After cooling to room temperature tubes were centrifuged at 1500 g for 15 min and the fluorescence was measured using the FLUOstar OPTIMA plate reader (BMG Labtech Inc. Canada). Excitation and emission wavelengths used were 532 and 590 nm, respectively. TBARS activity was expressed as the percent inhibition (Equation 1) of LDL oxidation with comparison to the positive control, where F is fluorescence:
(§5) Percent inhibition (%)=100(Fpositive control−Fsample)/(Fpositive control) (1)

[3] = system: LDL isolated from human plasma; assay: TBARS assay, AAPH-induced LDL oxidation
Description: as §3, §1, §2, §4, §5

[4] = 50 mg L^−1, comparison of constituent compounds and metabolites (Table 4)

O=C(O)[C@H]1O[C@@H](Oc2c(-c3ccc(O)c(O)c3)oc3cc(O)cc(O)c3c2=O)[C@H](O)[C@@H](O)[C@@H]1O [Quercetin-3-glucuronic acid]
Protection against LDL oxidation, quercetin metabolites (statement) ([1]; 50 mg L^−1): best protection
Pro-oxidant effect (statement) [1]: did not show any pro-oxidant effect
Percent inhibition of secondary LDL oxidation products, Cu induction ([2]; 0.0005 mg L^−1): 10.73 ± 1.68^e %
Percent inhibition of secondary LDL oxidation products, Cu induction ([2]; 0.001 mg L^−1): 23.06 ± 2.97^d %
Percent inhibition of secondary LDL oxidation products, Cu induction ([2]; 0.005 mg L^−1): 15.68 ± 2.22^e %
Percent inhibition of secondary LDL oxidation products, Cu induction ([2]; 0.01 mg L^−1): 14.85 ± 0.80^e %
Percent inhibition of secondary LDL oxidation products, Cu induction ([2]; 0.5 mg L^−1): 71.09 ± 1.34^c %
Percent inhibition of secondary LDL oxidation products, Cu induction ([2]; 1 mg L^−1): 88.59 ± 0.21^b %
Percent inhibition of secondary LDL oxidation products, Cu induction ([2]; 5 mg L^−1): 90.37 ± 2.31^b %
Percent inhibition of secondary LDL oxidation products, Cu induction ([2]; 10 mg L^−1): 94.2 ± 31.32^ab %
Percent inhibition of secondary LDL oxidation products, Cu induction ([2]; 25 mg L^−1): 95.24 ± 0.71^ab %
Percent inhibition of secondary LDL oxidation products, Cu induction ([2]; 50 mg L^−1): 98.64 ± 0.47^a %
Percent inhibition of secondary LDL oxidation products, Cu induction [2, 4]: 49.40 ± 2.04^d %
Percent inhibition of secondary LDL oxidation products, AAPH induction ([3]; 0.0005 mg L^−1): 11.79 ± 2.10^f %
Percent inhibition of secondary LDL oxidation products, AAPH induction ([3]; 0.001 mg L^−1): 26.29 ± 1.68^d %
Percent inhibition of secondary LDL oxidation products, AAPH induction ([3]; 0.005 mg L^−1): 24.12 ± 1.53^de %
Percent inhibition of secondary LDL oxidation products, AAPH induction ([3]; 0.01 mg L^−1): −1.96 ± 3.37^g %
Percent inhibition of secondary LDL oxidation products, AAPH induction ([3]; 0.5 mg L^−1): 4.32 ± 1.18^fg %
Percent inhibition of secondary LDL oxidation products, AAPH induction ([3]; 1 mg L^−1): 13.31 ± 1.79^ef %
Percent inhibition of secondary LDL oxidation products, AAPH induction ([3]; 5 mg L^−1): 55.17 ± 0.33^c %
Percent inhibition of secondary LDL oxidation products, AAPH induction ([3]; 10 mg L^−1): 80.74 ± 3.27^a %
Percent inhibition of secondary LDL oxidation products, AAPH induction ([3]; 25 mg L^−1): 66.69 ± 2.41^b %
Percent inhibition of secondary LDL oxidation products, AAPH induction ([3]; 50 mg L^−1): 72.00 ± 0.97^ab %
Percent inhibition of secondary LDL oxidation products, AAPH induction [3, 4]: 74.24 ± 1.36^d %

O=c1c(O)c(-c2ccc(O)c(O)c2)oc2cc(O)cc(O)c12 [Quercetin]
Pro-oxidant effect (statement) [1]: did not show any pro-oxidant effect
Percent inhibition of secondary LDL oxidation products, Cu induction ([2]; 0.0005 mg L^−1): 13.97 ± 2.56^d %
Percent inhibition of secondary LDL oxidation products, Cu induction ([2]; 0.005 mg L^−1): 8.07 ± 3.33^de %
Percent inhibition of secondary LDL oxidation products, Cu induction ([2]; 0.01 mg L^−1): 4.62 ± 1.03^e %
Percent inhibition of secondary LDL oxidation products, Cu induction ([2]; 0.5 mg L^−1): 75.68 ± 1.31^c %
Percent inhibition of secondary LDL oxidation products, Cu induction ([2]; 1 mg L^−1): 85.87 ± 1.55^b %
Protection for Cu2+ induced LDL oxidation ([2]; beyond 1 mg L^−1): more than 80%
Percent inhibition of secondary LDL oxidation products, AAPH induction ([3]; 0.0005 mg L^−1): 13.41 ± 0.67^e %
Percent inhibition of secondary LDL oxidation products, AAPH induction ([3]; 0.001 mg L^−1): 28.18 ± 2.19^d %
Percent inhibition of secondary LDL oxidation products, AAPH induction ([3]; 0.005 mg L^−1): 23.17 ± 1.48^d %
Percent inhibition of secondary LDL oxidation products, AAPH induction ([3]; 0.01 mg L^−1): 16.71 ± 1.18^e %
Percent inhibition of secondary LDL oxidation products, AAPH induction ([3]; 0.5 mg L^−1): 46.78 ± 0.85^c %
Percent inhibition of secondary LDL oxidation products, AAPH induction ([3]; 1 mg L^−1): 66.41 ± 0.83^b %
Percent inhibition of secondary LDL oxidation products, AAPH induction ([3]; 5 mg L^−1): 86.62 ± 2.00^a %
Percent inhibition of secondary LDL oxidation products, AAPH induction ([3]; 10 mg L^−1): 90.20 ± 0.63^a %
Percent inhibition of secondary LDL oxidation products, AAPH induction ([3]; 25 mg L^−1): 92.04 ± 0.51^a %
Percent inhibition of secondary LDL oxidation products, AAPH induction ([3]; 50 mg L^−1): 91.90 ± 0.69^a %
Percent inhibition of secondary LDL oxidation products, AAPH induction [3, 4]: 85.06 ± 1.23^c %
Protection for AAPH induced LDL oxidation ([3]; beyond 5 mg L^−1): more than 80%

O=c1c(O[C@@H]2O[C@H](CO)[C@H](O)[C@H](O)[C@H]2O)c(-c2ccc(O)c(O)c2)oc2cc(O)cc(O)c12 [Quercetin-3-O-galactoside]
Pro-oxidant effect (statement) [1]: did not show any pro-oxidant effect
LDL oxidation inhibition for both the induction systems ([1]; concentrations greater than 5 mg L^−1): more than 85%
Percent inhibition of secondary LDL oxidation products, Cu induction ([2]; 0.0005 mg L^−1): 6.39 ± 2.33^c %
Percent inhibition of secondary LDL oxidation products, Cu induction ([2]; 0.001 mg L^−1): 4.88 ± 0.76^c %
Percent inhibition of secondary LDL oxidation products, Cu induction ([2]; 0.005 mg L^−1): 4.64 ± 1.50^c %
Percent inhibition of secondary LDL oxidation products, Cu induction ([2]; 0.01 mg L^−1): −6.51 ± 2.90^d %
Percent inhibition of secondary LDL oxidation products, Cu induction ([2]; 0.5 mg L^−1): 6.20 ± 1.77^c %
Percent inhibition of secondary LDL oxidation products, Cu induction ([2]; 1 mg L^−1): 27.61 ± 0.58^b %
Percent inhibition of secondary LDL oxidation products, Cu induction ([2]; 5 mg L^−1): 87.87 ± 0.32^a %
Percent inhibition of secondary LDL oxidation products, Cu induction ([2]; 10 mg L^−1): 89.88 ± 0.50^a %
Percent inhibition of secondary LDL oxidation products, Cu induction ([2]; 25 mg L^−1): 91.49 ± 0.88^a %
Percent inhibition of secondary LDL oxidation products, Cu induction ([2]; 50 mg L^−1): 92.73 ± 0.56^a %
Percent inhibition of secondary LDL oxidation products, Cu induction [2, 4]: 105.34 ± 0.30^ab %
Percent inhibition of secondary LDL oxidation products, AAPH induction ([3]; 0.0005 mg L^−1): −29.51 ± 2.43^c %
Percent inhibition of secondary LDL oxidation products, AAPH induction ([3]; 0.001 mg L^−1): −64.01 ± 6.16^c %
Percent inhibition of secondary LDL oxidation products, AAPH induction ([3]; 0.005 mg L^−1): −35.63 ± 5.21^c %
Percent inhibition of secondary LDL oxidation products, AAPH induction ([3]; 0.01 mg L^−1): −34.82 ± 4.98^c %
Percent inhibition of secondary LDL oxidation products, AAPH induction ([3]; 0.5 mg L^−1): 37.82 ± 7.30^b %
Percent inhibition of secondary LDL oxidation products, AAPH induction ([3]; 1 mg L^−1): 49.08 ± 3.10^b %
Percent inhibition of secondary LDL oxidation products, AAPH induction ([3]; 5 mg L^−1): 88.62 ± 2.58^a %
Percent inhibition of secondary LDL oxidation products, AAPH induction ([3]; 10 mg L^−1): 86.65 ± 1.82^a %
Percent inhibition of secondary LDL oxidation products, AAPH induction ([3]; 25 mg L^−1): 85.58 ± 2.24^a %
Percent inhibition of secondary LDL oxidation products, AAPH induction ([3]; 50 mg L^−1): 92.23 ± 1.87^a %
Percent inhibition of secondary LDL oxidation products, AAPH induction [3, 4]: 141.68 ± 1.43^a %
